{
  "source": "patent US11407738B2",
  "about": "(Achillion Pharmaceuticals, Inc., priority 2015, dated 2022)",
  "data": [
    {"target": "Human Factor D (Homo sapiens (Human), UniProt P00746)", "sequence (P00746 26-253)": "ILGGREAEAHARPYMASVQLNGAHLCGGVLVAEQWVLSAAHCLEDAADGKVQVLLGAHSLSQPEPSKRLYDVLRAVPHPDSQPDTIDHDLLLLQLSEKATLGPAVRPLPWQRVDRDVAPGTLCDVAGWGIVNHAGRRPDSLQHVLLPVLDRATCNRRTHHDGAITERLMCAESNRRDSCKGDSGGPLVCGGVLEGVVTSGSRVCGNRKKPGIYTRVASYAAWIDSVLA", "assay": "Human Factor D assay", "type": "biochemical", "details": "Table 4; Factor D inhibition, substrate Z-L-Lys-SBzl", "method_in_brief": "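Serum-purified human factor D (80 nM final) preincubated 5 min at room temperature with test compound in 50 mM Tris, 1M NaCl, pH 7.5. Z-L-Lys-SBzl substrate and DTNB then added, each at 100 μM final. IC50 from nonlinear regression of reaction rate against compound concentration.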", "units": {"IC50": "µM"}, "values": [
      {"compound": "CC(=O)c1nn(CC(=O)N2C[C@H](F)C[C@H]2C(=O)Nc2cccc(-c3ccccc3Cl)c2F)c2ccc(N3CCn4c(nnc4C(F)(F)F)C3)cc12", "note": "[Compound 619, (2S,4R)-1-(2-(3-acetyl-5-(3-(trifluoromethyl)-5,6-dihydro-[1,2,4]triazolo[4,3-a]pyrazin-7(8H)-yl)-1H-indazol-1-yl)acetyl)-N-(2′-chloro-2-fluoro-[1,1′-biphenyl]-3-yl)-4-fluoropyrrolidine-2-carboxamide]", "IC50": "< 1"},
      {"compound": "CC(=O)c1nn(CC(=O)N2C[C@H](F)C[C@H]2C(=O)Nc2cccc(Br)n2)c2ccc(N3C[C@H]4CCCC[C@H]4C3)cc12", "note": "[Compound 621, (2S,4R)-1-(2-(3-acetyl-5-((3aR,7aS)-hexahydro-1H-isoindol-2(3H)-yl)-1H-indazol-1-yl)acetyl)-N-(6-bromopyridin-2-yl)-4-fluoropyrrolidine-2-carboxamide]", "IC50": "< 1"},
      {"compound": "COP(=O)(CC(=O)c1nn(CC(=O)N2C[C@H](F)C[C@H]2C(=O)Nc2cccc(Br)n2)c2ccc(-c3cnc(C)nc3)cc12)OC", "note": "[Compound 625, dimethyl (2-(1-(2-((2S,4R)-2-((6-bromopyridin-2-yl)carbamoyl)-4-fluoropyrrolidin-1-yl)-2-oxoethyl)-5-(2-methylpyrimidin-5-yl)-1H-indazol-3-yl)-2-oxoethyl)phos-phonate]", "IC50": "> 10"},
      {"compound": "Cc1ncc(-c2ccc3c(c2)c(C(=O)CP(=O)(O)O)nn3CC(=O)N2C[C@H](F)C[C@H]2C(=O)Nc2cccc(Br)n2)cn1", "note": "[Compound 626, (2-(1-(2-((2S,4R)-2-((6-bromopyridin-2-yl)carbamoyl)-4-fluoropyrrolidin-1-yl)-2-oxoethyl)-5-(2-methylpyrimidin-5-yl)-1H-indazol-3-yl)-2-oxoethyl)phosphonic acid]", "IC50": "> 10"},
      {"compound": "CCOP(=O)(OCC)OC[C@@]12C[C@@H]1N(C(=O)Cn1nc(C(C)=O)c3cc(-c4cnc(C)nc4)ccc31)[C@H](C(=O)Nc1cccc(Br)n1)C2", "note": "[Compound 628, ((1S,3S,5R)-2-(2-(3-acetyl-5-(2-methylpyrimidin-5-yl)-1H-indazol-1-yl)acetyl)-3-((6-bromopyridin-2-yl)carbamoyl)-2-azabicyclo[3.1.0]hex-an-5-yl)methyl diethyl phosphate]", "IC50": "1 to 10"},
      {"compound": "CC(=O)c1nn(CC(=O)N2C[C@H](F)C[C@H]2CNCc2cccc(Cl)c2F)c2ccc(-c3cnc(C)nc3)cc12", "note": "[Compound 630, 2-(3-Acetyl-5-(2-methylpyrimidin-5-yl)-1H-indazol-1-yl)-1-((2S,4R)-2-(((3-chloro-2-fluorobenzyl)amino)methyl)-4-fluoropyrrolidin-1-yl)ethan-1-one]", "IC50": "1 to 10"},
      {"compound": "Cc1ncc(-c2ccc3c(c2)c(C(C)O)nn3CC(=O)N2C[C@H](F)C[C@H]2C(=O)O)cn1", "note": "(stereo partly drawn) [Compound 631, (2S,4R)-4-Fluoro-1-(2-(3-(1-hydroxyethyl)-5-(2-methylpyrimidin-5-yl)-11-indazol-1-yl)acetyl)pyrrolidine-2-carboxylic Acid]", "IC50": "> 10"},
      {"compound": "COC(=O)[C@@H]1C[C@@H](F)CN1C(=O)Cn1nc(C(C)O)c2cc(-c3cnc(C)nc3)ccc21", "note": "(stereo partly drawn) [Compound 633, Methyl (2S,4R)-4-fluoro-1-(2-(3-(1-hydroxyethyl)-5-(2-methylpyrimidin-5-yl)-1H-indazol-1-yl)acetyl)pyrrolidine-2-carboxylate]", "IC50": "> 10"},
      {"compound": "COc1cc(CC(=O)N2C[C@H](F)C[C@H]2C(=O)Nc2cccc(-c3ccccc3Cl)c2F)cc(-c2cnc(C)nc2)c1", "note": "[Compound 636, (2S,4R)—N-(2′-chloro-2-fluoro-[1,1′-biphenyl]-3-yl)-4-fluoro-1-(2-(3-methoxy-5-(2-methylpyrimidin-5-yl)phenyl)acetyl)pyrrolidine-2-carboxamide]", "IC50": "< 1"},
      {"compound": "CC(=O)c1nn(CC(=O)N2C[C@H](F)C[C@H]2C(=O)Nc2cccc(-c3ccc4scnc4c3)c2F)c2ccc(-c3cnc(C)nc3)cc12", "note": "[Compound 638, (2S,4R)-1-(2-(3-acetyl-5-(2-methylpyrimidin-5-yl)-1H-indazol-1-yl)acetyl)-N-(3-(benzo[d]thiazol-5-yl)-2-fluorophenyl)-4-fluoropyrrolidine-2-carboxamide]", "IC50": "< 1"},
      {"compound": "CC(=O)c1nn(CC(=O)N2C[C@H](F)C[C@H]2C(=O)Nc2cccc(-c3ccc4scnc4c3)c2F)c2ccc(-c3cnc4cc(C)nn4c3)cc12", "note": "[Compound 639, (2S,4R)-1-(2-(3-acetyl-5-(4-methylpyrazolo[1,5-a]pyrimidin-6-yl)-1H-indazol-1-yl)acetyl)-N-(3-(benzo[d]thiazol-5-yl)-2-fluorophenyl)-4-fluoropyrrolidine-2-carboxamide]", "IC50": "< 1"},
      {"compound": "Cc1cc2ncc(-c3nc4c(s3)c(C(N)=O)nn4CC(=O)N3C[C@H](F)C[C@H]3C(=S)NC3CCC(c4cc5sccc5s4)C3)cn2n1", "note": "(stereo partly drawn) [Compound 640, 1-(2-((2S,4R)-4-fluoro-2-((3-(thieno[3,2-b]thiophen-2-yl)cyclopentyl)carba-mothioyl)pyrrolidin-1-yl)-2-oxoethyl)-5-(2-methylpyrazolo[1,5-a]pyrimidin-6-yl)-1H-pyrazolo[3,4-d]thiazole-3-carboxamide]", "IC50": "> 10"},
      {"compound": "CC(=O)c1nn(CC(=O)N2CCC[C@@H](C(=O)NCc3cccc(Br)n3)C2)c2ccc(-c3cnc(C)nc3)cc12", "note": "[Compound 642]", "IC50": "> 10"},
      {"compound": "CC(=O)c1cc(CC(=O)N2C[C@H](F)C[C@H]2C(=O)Nc2cccc(Br)n2)n2ccc(-c3cnc(C)nc3)cc12", "note": "[Compound 643]", "IC50": "< 1"}
    ]}
  ]
}
